# Measured values taken from patent US20070185161A1, “Bicyclic substituted indole-derivative steroid hormone nuclear receptor modulators” (priority 2004, published 2007).
# Biological target: T1, human MR (Homo sapiens, UniProt P08235)
# T1 construct: The full length human MR gene is cloned from a human kidney or human brain cDNA library; made in house; host or cells: SF9 insect cells (baculovirus)
# T1 sequence (P08235 1-984): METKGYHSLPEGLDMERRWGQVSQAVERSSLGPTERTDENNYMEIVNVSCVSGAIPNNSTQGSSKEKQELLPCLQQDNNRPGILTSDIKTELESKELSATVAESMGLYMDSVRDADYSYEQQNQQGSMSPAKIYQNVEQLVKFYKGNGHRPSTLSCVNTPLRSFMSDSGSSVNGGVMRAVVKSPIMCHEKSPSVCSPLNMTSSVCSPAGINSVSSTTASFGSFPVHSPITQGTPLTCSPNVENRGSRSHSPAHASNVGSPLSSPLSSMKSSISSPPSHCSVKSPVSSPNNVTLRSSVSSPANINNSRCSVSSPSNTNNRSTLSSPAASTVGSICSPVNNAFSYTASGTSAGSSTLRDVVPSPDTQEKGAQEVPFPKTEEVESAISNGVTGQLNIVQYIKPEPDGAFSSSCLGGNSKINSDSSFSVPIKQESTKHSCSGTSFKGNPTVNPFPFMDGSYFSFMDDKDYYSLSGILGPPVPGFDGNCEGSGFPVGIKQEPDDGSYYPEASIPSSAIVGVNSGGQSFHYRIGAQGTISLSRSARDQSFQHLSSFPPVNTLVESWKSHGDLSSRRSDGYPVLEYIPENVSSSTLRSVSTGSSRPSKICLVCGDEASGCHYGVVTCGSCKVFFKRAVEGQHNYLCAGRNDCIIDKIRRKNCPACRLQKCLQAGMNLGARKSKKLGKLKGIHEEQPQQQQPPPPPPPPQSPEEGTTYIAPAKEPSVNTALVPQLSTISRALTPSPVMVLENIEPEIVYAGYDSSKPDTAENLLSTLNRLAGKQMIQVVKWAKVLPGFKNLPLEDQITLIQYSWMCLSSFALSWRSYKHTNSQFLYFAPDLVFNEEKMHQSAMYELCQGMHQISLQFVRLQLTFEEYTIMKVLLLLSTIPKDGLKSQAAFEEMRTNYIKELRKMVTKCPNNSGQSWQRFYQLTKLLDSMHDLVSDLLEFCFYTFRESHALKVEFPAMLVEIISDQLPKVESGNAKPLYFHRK
# Assay: Mineralocorticoid Receptor Binding Assay (Method 1)
# Details: [3H]-aldosterone, racemic mixture unless otherwise indicated
# Description: The full length human MR gene is cloned from a human kidney or human brain cDNA library. Briefly, using synthetic oligonucleotide primers (Eli Lilly and Company, Indianapolis) directed to nucleotides 20-54 and 3700-3666 of the human MR, polymerase chain reaction (PCR) is performed under standard conditions using a human cDNA library. The PCR reaction is performed in a final volume of 50 μl containing about 1 μl of a 50× stock solution of polymerase; about 1 μl of a 50× stock solution of dNTP; about 5 μl of an appropriate PCR buffer; about 1 μl of each primer; about 5 μl of a H. kidney or H. brain cDNA library; and about 36 μl of water. The reaction is allowed to denature for about 30 seconds at 95 degrees Celsius, anneal for about 30 seconds at 55 degrees Celsius, and extend for about 5 minutes at 72 degrees Celsius, the sequence being repeated for a total of about 35 cycles. The desired PCR product (3.68 Kb) is confirmed by gel electrophoresis and subsequently cut from the gel and stored at about −20 degrees Celsius until extraction. To extract the cDNA product from the agarose gel, the QIAEX II Gel Extraction protocol (QIAGEN, Inc.) is employed according to the manufacturer's instructions. Following extraction, the MR cDNA is cloned into an appropriate cloning vector (Zero Blunt TOPO PCR Cloning Kit (Invitrogen, Inc.) and a pAcHLT-baculovirus transfer vector (B.D./Pharminogen), then expressed in SF9 insect cells, essentially according to manufacturer's instructions. Sf9 cells are grown at a scale where gram quantity cell pellets are obtained for subsequent use in the MR binding assay. Harvested cell pellets are lysed by repeated freeze-thaw cycles (about 4) in a suitable lysis buffer then centrifuged at about 1×10^3 G (with the supernatant being saved for future assays).
# MR binding assays are performed in a final total volume of about 250 μl containing about 20-25 μg of protein and 0.5 nM of [^3H]-aldosterone plus varying concentrations of test compound or vehicle. The assay binding buffer consists of 30 mM sodium molybdate, 30 mM of TRIS-HCl, 5 mM sodium phosphate, 5 mM sodium pyrophosphate, and about 10% glycerol, pH=7.5.
# Briefly, assays are prepared at RT in 96-well Falcon 3072 plates, each well containing 210 μl of binding buffer, 10 μl of [^3H]-aldosterone, 10 μl of test compound/vehicle, and 20 μl of the resuspended receptor protein extract. Incubations are carried out at 4 degrees Celsius with shaking for about 16 hours. 200 μl aliquots of each incubation are filtered onto Millipore HA 0.45 micron 96-well filter plates, pre-moistened with cold 30 mM TRIS-HCl. The filter plates are suctioned dry with vacuum and immediately washed 3× with cold 30 mM TRIS-HCl. The plates are then punched out and the amount of receptor-ligand complex is determined by liquid scintillation counting using 4 ml of Ready Protein Plus™ liquid scintillation cocktail.
# IC50 values (defined as the concentration of test compound required to decrease [^3H]-aldosterone binding by 50%) are then determined. Ki values for each respective test compound can then be calculated by application of the Cheng-Prusoff equation as described in Cheng et al., Relationship Between The Inhibition Constant (Ki) and The Concentration of Inhibitor Which Causes 50% Inhibition (IC50) of an Enzymatic Reaction, Biochem. Pharmacol., 22: 3099-31088; (1973).
row,Ki,SMILES
1,≤ 500 nM,"CCC1(c2c[nH]c3c(NS(C)(=O)=O)cccc23)CCCc2cc(F)ccc21 (single isomer, unassigned) [Example 29A, N-[3-(1-Ethyl-6-fluoro-1,2,3,4-tetrahydro-naphthalen-1-yl)-1H-indol-7-yl]-methanesulfonamide]"
2,≤ 500 nM,"CCC1(c2c[nH]c3c(NS(C)(=O)=O)cccc23)CCc2cc(F)ccc21 (racemic) [Example 1, N-[3-(1-ethyl-5-fluoro-indan-1-yl)-1H-indol-7-yl]-methanesulfonamide]"
3,≤ 500 nM,"CC1(c2c[nH]c3c(NS(C)(=O)=O)cccc23)CCCc2cc(F)ccc21 (single isomer, unassigned) [Example 28A, N-[3-(6-Fluoro-1-methyl-1,2,3,4-tetrahydro-naphthalen-1-yl)-1H-indol-7-yl]-methanesulfonamide]"
4,≤ 500 nM,"CC1(c2c[nH]c3c(NS(C)(=O)=O)cccc23)CCCc2cc(F)ccc21 (single isomer, unassigned) [Example 28B, N-[3-(6-Fluoro-1-methyl-1,2,3,4-tetrahydro-naphthalen-1-yl)-1H-indol-7-yl]-methanesulfonamide]"
5,≤ 500 nM,"CC1(c2c[nH]c3c(NS(C)(=O)=O)cccc23)CCc2cc(-n3cccn3)ccc21 (stereo not drawn) [Example 24, N-[3-(1-Methyl-5-pyrazol-1-yl-indan-1-yl)-1H-indol-7-yl]-methanesulfonamide]"
6,≤ 500 nM,"CCC1(c2cn(C)c3c(NS(C)(=O)=O)cccc23)CCc2cc(F)ccc21 (stereo not drawn) [Example 5, N-[3-(1-Ethyl-5-fluoro-indan-1-yl)-1-methyl-1H-indol-7-yl]-methanesulfonamide]"
7,≤ 500 nM,"CNCCCC1(c2c[nH]c3c(NS(C)(=O)=O)cccc23)CCc2cc(F)ccc21 (stereo not drawn) [Example 42, N-{3-[5-Fluoro-1-(3-methylamino-propyl)-indan-1-yl]-1H-indol-7-yl}-methanesulfonamide]"
8,≤ 500 nM,"CCC1(c2c[nH]c3c(NS(C)(=O)=O)cccc23)CCCc2cc(F)ccc21 (single isomer, unassigned) [Example 29B, N-[3-(1-Ethyl-6-fluoro-1,2,3,4-tetrahydro-naphthalen-1-yl)-1H-indol-7-yl]-methanesulfonamide]"
9,≤ 500 nM,"CC1(c2c[nH]c3c(NS(C)(=O)=O)cccc23)CCCCc2ccccc21 (stereo not drawn) [Example 38, N-[3-(5-Methyl-6,7,8,9-tetrahydro-5H-benzocyclohepten-5-yl)-1H-indol-7-yl]-methanesulfonamide]"
10,≤ 500 nM,"CCC1(c2c[nH]c3c(NS(C)(=O)=O)cccc23)CCOc2cc(F)ccc21 (racemic) [Example 35, N-[3-(4-Ethyl-7-fluoro-chroman-4-yl)-1H-indol-7-yl]-methanesulfonamide]"
11,≤ 500 nM,"CCC1(c2c[nH]c3c(NS(C)(=O)=O)cccc23)CCOc2cc(F)ccc21 (single isomer, unassigned) [Example 35B, N-[3-(4-Ethyl-7-fluoro-chroman-4-yl)-1H-indol-7-yl]-methanesulfonamide]"
12,≤ 500 nM,"CCC1(c2c[nH]c3c(NS(=O)(=O)CC)cccc23)CCc2cc(F)ccc21 (stereo not drawn) [Example 19, Ethanesulfonic acid [3-(1-ethyl-5-fluoro-indan-1-yl)-1H-indol-7-yl]-amide]"
13,≤ 500 nM,"CC1(c2c[nH]c3c(NS(C)(=O)=O)cccc23)CCc2cc(F)ccc21 (single isomer, unassigned) [Example 21A, N-[3-(5-Fluoro-1-methyl-indan-1-yl)-1H-indol-7-yl]-methanesulfonamide]"
14,≤ 500 nM,"CCC1(c2c[nH]c3c(NS(C)(=O)=O)cccc23)CCCc2cc(F)ccc21 (racemic) [Example 29, N-[3-(1-Ethyl-6-fluoro-1,2,3,4-tetrahydro-naphthalen-1-yl)-1H-indol-7-yl]-methanesulfonamide]"
15,≤ 500 nM,"CC1(c2c[nH]c3c(NS(C)(=O)=O)cccc23)CCOc2cc(F)ccc21 (single isomer, unassigned) [Example 34A, N-[3-(7-Fluoro-4-methyl-chroman-4-yl)-1H-indol-7-yl]-methanesulfonamide]"
16,≤ 500 nM,"CS(=O)(=O)Nc1cccc2c(C3CCCc4ccccc43)c[nH]c12 (stereo not drawn) [Example 25, N-[3-(1,2,3,4-Tetrahydro-naphthalen-1-yl)-1H-indol-7-yl]-methanesulfonamide]"
17,≤ 500 nM,"CS(=O)(=O)Nc1cccc2c(C3(CCCO)CCc4cc(F)ccc43)c[nH]c12 (racemic) [Example 40, N-{3-[5-Fluoro-1-(3-hydroxy-propyl)-indan-1-yl]-1H-indol-7-yl}-methanesulfonamide]"
18,≤ 500 nM,"CC1(c2c[nH]c3c(NS(C)(=O)=O)cccc23)CCOc2cc(F)ccc21 (racemic) [Example 34, N-[3-(7-Fluoro-4-methyl-chroman-4-yl)-1H-indol-7-yl]-methanesulfonamide]"
19,≤ 500 nM,"CCC1(c2c[nH]c3c(NC(C)=O)cccc23)CCc2cc(F)ccc21 (stereo not drawn) [Example 16, N-[3-(1-ethyl-5-fluoro-indan-1-yl)-1H-indol-7-yl]-acetamide]"
20,≤ 500 nM,"CCC1(c2c[nH]c3c(NS(C)(=O)=O)cccc23)CCc2cc(F)cc(F)c21 (single isomer, unassigned) [Example 23A, N-[3-(1-Ethyl-5,7-difluoro-indan-1-yl)-1H-indol-7-yl]-methanesulfonamide]"
21,≤ 500 nM,"CCC1(c2c[nH]c3c(NS(C)(=O)=O)cccc23)CCCc2ccccc21 (stereo not drawn) [Example 27, N-[3-(1-Ethyl-1,2,3,4-tetrahydro-naphthalen-1-yl)-1H-indol-7-yl]-methanesulfonamide]"
22,≤ 500 nM,"CC1(c2c[nH]c3c(NS(C)(=O)=O)cccc23)CCCc2cc(F)ccc21 (racemic) [Example 28, N-[3-(6-Fluoro-1-methyl-1,2,3,4-tetrahydro-naphthalen-1-yl)-1H-indol-7-yl]-methanesulfonamide]"
23,≤ 500 nM,"CC1(c2c[nH]c3c(NS(C)(=O)=O)cccc23)CCc2cc(F)cc(F)c21 (single isomer, unassigned) [Example 22A, N-[3-(5,7-Difluoro-1-methyl-indan-1-yl)-1H-indol-7-yl]-methanesulfonamide]"
24,≤ 500 nM,"CCC1(c2c[nH]c3c(NS(C)(=O)=O)cccc23)CCOc2cc(F)cc(F)c21 (single isomer, unassigned) [Example 36B, N-[3-(4-Ethyl-5,7-difluoro-chroman-4-yl)-1H-indol-7-yl]-methanesulfonamide]"
